Measured values published in PMC6713120, “Kinetic and thermodynamic characterisation of HIV-protease inhibitors against E35D↑G↑S mutant in the South African HIV-1 subtype C protease” (Journal of Enzyme Inhibition and Medicinal Chemistry, 2019).
“And” between values parts separate entries of the source, which are not always exact repeats. Equal entries are not always repeated.

Assays:
[1] = biological target: wild type C-SA HIV protease (Human immunodeficiency virus type 1 group M subtype C, UniProt Q994Q3); test: Inhibition of chromogenic substrate hydrolysis by wild type C-SA HIV protease; type: biochemical, HIV-1 subtype C; conditions: for IC50: wild type C-SA protease, n = 3, read-out: WT IC50; for Ki / ΔG (Gibbs free binding energy): wild type; for Ki: 37 °C, pH 5.0; for ΔG (Gibbs free binding energy): calculated from Ki, ΔG=RTlnKi
Description: (§1) Enzymatic activity of the HIV-1 C-SA and mutant (E35D↑G↑S) protease was measured by following the hydrolysis of the HIV-PR chromogenic substrate, Lys-Ala-Arg-Val-Nle-nPhe-Glu-Ala-Nle-NH2 as reported before[13]^,[15]. The substrate resembles the conserved protease cleavage site, KARVL/AEAM[8] between the capsid protein and the […] in the Gag-polyprotein precursor. Hydrolysis of the HIV chromogenic substrate was characterised by the decrease in absorbance at 300 nm. Catalytic properties such as the Km, kcat, and kcat/Km of the proteases were determined. All catalytic activity assays were performed using a Jasco V-630 spectrophotometer (Jasco International co., LTD, Japan).
(§2) This was done by monitoring the rate of chromogenic substrate hydrolysis using 2 µM protease in 50.0 mM sodium acetate, 0.1 M NaCl, pH 5.0, and (0–250 µM) substrate in increasing amounts of inhibitor (0–10 nM).
(§3) The Ki values were estimated using a competitive inhibition equation (Equation 1) according to Williams et al..

[2] = biological target: T1, E35D↑G↑S mutant HIV-1 subtype C protease (Human immunodeficiency virus type 1 group M subtype C, UniProt Q994Q3, D118E/E93D/I94G/INS93GS); test: biochemical; conditions: for IC50: E35D↑G↑S IC50, mutant E35D↑G↑S, n = 3; for Ki ratio / reduced activity in comparison to the wildtype: mutant versus wild type; for ΔΔG: mutant-wild type; for log vitality: v = (Ki × Kcat/Km)MUT/(Ki × Kcat/Km)WT, wild type as reference; for ΔG (Gibbs free binding energy): calculated from Ki, ΔG=RTlnKi
Description: as §1, §2
This is done by introducing the term “vitality” which is a measure of resistance. Vitality, v, is defined as v = (Ki × Kcat/Km)MUT/(Ki × Kcat/Km)WT, and predicts the therapeutic effect of a given protease inhibitor.
as §3

[3] = biological target: T1, E35D↑G↑S mutant HIV-1 subtype C protease; conditions: mutant-wild type
Description: Quenching experiments were performed according to the method reported by Maseko et al.[15]. Spectrofluorimetry was used to determine structural changes induced in HIV protease by the interaction of the inhibitors with the purified enzymes using Jasco V-630 spectrofluorimeter (Jasco International co., LTD, Japan). The excitation wavelength was fixed at 295 nm, the wavelength at which tryptophan absorbs and the emission wavelength measured was at […]. The change in fluorescence of a solution was monitored over 10 min, as increasing concentrations of inhibitors were added to a reaction mixture of HIV protease in 50 mM sodium acetate, 1 M NaCl, pH 5 in a final volume of […]. All fluorescence quenching experiments were performed at 4 different temperatures (293 K, 298 K, 303 K, 310 K). The following equations are applicable. (1) F0/F=1+KsvQ (2) lnKsv=−(ΔH/RT)+(ΔS/R) where F0 and F are the florescence in the absence and presence of quencher, Ksv is the Stern Volmer constant, Q is the quencher (drug), ΔH is the enthalpy, ΔS is entropy, R is the gas constant and T is the experimental temperature. The equation is developed from Van’t Hoff relationship. (3) ΔG=RTlnKi
Thermodynamic parameters were calculated from the Stern Volmer and Van’t Hoff plots (Figures S3 and S4). From these plots, ΔH and ΔS values for each drug were calculated. ΔG values were calculated from the Ki values from Equation (3).

| SMILES | IC50 [1] | Ki [1] | ΔG (Gibbs free binding energy) [1] | Ki [2] | IC50 [2] | Ki ratio [2] | ΔΔG [2] | log vitality [2] | ΔΔH [3] | −TΔΔS [3] | ΔG (Gibbs free binding energy) ([2]; mutant E35D↑G↑S) | log Ki ([2]; mutant E35D↑G↑S, logarithm of Ki in nM, 37 °C, pH 5.0) | reduced activity in comparison to the wildtype [2] |
| --- | --- | --- | --- | --- | --- | --- | --- | --- | --- | --- | --- | --- | --- |
| COC(=O)N[C@H](C(=O)N[C@@H](Cc1ccccc1)[C@@H](O)CN(Cc1ccc(-c2ccccn2)cc1)NC(=O)[C@@H](NC(=O)OC)C(C)(C)C)C(C)(C)C [ATV, Atazanavir] | 1.07 ± 0.08 nM | 0.0776 nM | -14.35 kcal/mol | 145 nM | 685 ± 3 nM | 1828 ± 2.0 | 4.6 ± 0.2 kcal/mol | highest vitality value | 3.1 ± 0.1 | −1.5 ± 0.1 |  |  |  |
| CCC[C@@]1(CCc2ccccc2)CC(O)=C([C@H](CC)c2cccc(NS(=O)(=O)c3ccc(C(F)(F)F)cn3)c2)C(=O)O1 [TPV, Tipranavir] | 1.55 ± 0.02 nM | 0.513 nM | -13.19 kcal/mol |  | 203 ± 2.6 nM | 292 ± 4.0 | 3.7 ± 0.1 kcal/mol | around two | 3.2 ± 0.2 | −7.1 ± 0.1 |  |  |  |
| Cc1c(O)cccc1C(=O)N[C@@H](CSc1ccccc1)[C@H](O)CN1C[C@H]2CCCC[C@H]2C[C@H]1C(=O)NC(C)(C)C [NFV, Nelfinavir] | 1.99 ± 0.05 nM |  |  | 174 nM | 1401 ± 3 nM | 532 ± 2 | 4.1 ± 0.2 kcal/mol | around two | 2.3 ± 0.0 | −1.8 ± 0.0 |  |  |  |
| CC(C)CN(C[C@@H](O)[C@H](Cc1ccccc1)NC(=O)O[C@H]1CO[C@H]2OCC[C@H]21)S(=O)(=O)c1ccc(N)cc1 [DRV, Darunavir] | 1.07 ± 0.04 nM |  |  |  | 154 ± 2 nM | 560 ± 3.0 | 3.9 ± 0.5 kcal/mol | around two | 2.1 ± 0.0 | −1.8 ± 0.1 |  |  |  |
| CC(C)CN(C[C@@H](O)[C@H](Cc1ccccc1)NC(=O)O[C@H]1CCOC1)S(=O)(=O)c1ccc(N)cc1 [APV, Amprenavir] | 0.81 ± 0.04 nM |  |  |  | 4.1 ± 0.05 nM | 4 ± 0.1 | 0.80 kcal/mol and 0.80 ± 0.1 kcal/mol | 0.36 | 12.9 ± 0.8 | 12.1 ± 0.2 | -13.12 kcal/mol | negative | 4 folds |
| CC(C)c1nc(CN(C)C(=O)N[C@H](C(=O)N[C@@H](Cc2ccccc2)C[C@H](O)[C@H](Cc2ccccc2)NC(=O)OCc2cncs2)C(C)C)cs1 [RTV, Ritonavir] |  |  |  |  |  |  | 0.93 kcal/mol and 0.9 ± 0.1 kcal/mol | 0.30 | 6.8 ± 0.1 | 5.8 ± 0.2 | -12.96 kcal/mol |  | 5 folds |
| CC(C)(C)NC(=O)[C@@H]1C[C@@H]2CCCC[C@@H]2CN1C[C@@H](O)[C@H](Cc1ccccc1)NC(=O)[C@H](CC(N)=O)NC(=O)c1ccc2ccccc2n1 [SQV, Saquinavir] | 0.77 ± 0.05 nM |  |  |  | 114 ± 1.2 nM | 215 ± 2.0 | 3.3 ± 0.5 kcal/mol | around two | 2.9 ± 0.1 | 0.4 ± 0.0 |  |  |  |
| CC(C)(C)NC(=O)[C@@H]1CN(Cc2cccnc2)CCN1C[C@@H](O)C[C@@H](Cc1ccccc1)C(=O)N[C@H]1c2ccccc2C[C@H]1O [IDV, Indinavir] | 3.44 ± 0.06 nM |  |  |  | 33.6 ± 1 nM | 20 ± 0.5 | 1.9 ± 0.6 kcal/mol | ~1.00 | −0.1 ± 0.0 | 1.8 ± 0.3 |  |  |  |
| Cc1cccc(C)c1OCC(=O)N[C@@H](Cc1ccccc1)[C@@H](O)C[C@H](Cc1ccccc1)NC(=O)[C@H](C(C)C)N1CCCNC1=O [LPV, Lopinavir] | 2.99 ± 0.01 nM |  |  |  | 51.7 ± 0.8 nM | 12 ± 0.1 | 1.6 ± 0.3 kcal/mol | ~1.00 | −13.1 ± 0.9 | 14.7 ± 0.1 |  |  |  |
